Measurements as given in patent US10781162B2 (UCL BUSINESS Ltd, priority 2016, dated 2020).

Key:
[1] = In vitro dissolution and aqueous solubility study in distilled water
Description: The dissolution experiment was carried out in triplicate on both the diethyl tetrathiomolybdate salt and the ammonium tetrathiomolybdate salt.

[2] = H2S gas detection assay (H2S gas release in PBS); format: physicochemical; details: for quantity of H2S gas released under standard conditions: PBS, pH 7.4, 37° C., incubation 1 hour, FIG. 12A
Source text: A, B and C denote the synthetic route of manufacture of DEA-TTM, with respect to FIG. 6.
If the sample is drawn in the latter part of the 10-second bin, the second or third reading may be the highest. A direct correlation ([…], straight line model, r^2=0.992; see FIG. 11) was observed on comparing the peak H2S value against the sum of the washout readings (decay) over time (area under curve, AUC). As the time to washout and the sum of values therein are directly proportional to the peak quantity of gas initially detected, it is appropriate to consider only the peak H2S gas level to determine the total amount of H2S gas release.
Initial testing of DEA-TTM salts A, B and C was carried out under standard conditions (dissolution in PBS, pH 7.4, incubation for 1 hour). […] Acidic conditions are shown to favour sulfide release.

[3] = Description: The in vitro dissolution and aqueous solubility behaviour at 25° C. was also investigated for the DEA-TTM salts synthesised by routes A, B and C as outlined in Example 1.5 above (Almac Sciences, Northern Ireland).

| Compound | solubility in distilled water [1] | dissolution time ([1]; distilled water) | thiol dependence of H2S release (increase, in words) ([2]; for reference) | solubility in water at 25° C. [3] | quantity of H2S gas released under standard conditions ([2]; listed as salt B) | quantity of H2S gas released under standard conditions ([2]; listed as salt C) |
| --- | --- | --- | --- | --- | --- | --- |
| [NH4+].[NH4+].[SH-].[SH-].[S]=[Mo]=[S] [ATTM, ammonium tetrathiomolybdate] | ca. 2 mg/ml | over 1 hour | six-fold increase | 2 mg/mL |  |  |
| CC[NH2+]CC.CC[NH2+]CC.[S]=[Mo](=[S])([S-])[S-] [diethylamine tetrathiomolybdate] |  |  |  |  | released the least H2S gas | released the most H2S gas |
